Our source for the IC50 values is patent US20210070748A1, “INHIBITORS OF BRUTONS TYROSINE KINASE” (Pharmacyclics LLC, priority 2015, published 2021).

Structures can show the parent of a compound that is named as a salt. Where two headings read alike, the source gives them in different places.

Holding throughout (assay type): biochemical
The target of experiment [1] is T1, JAK3 (Homo sapiens, UniProt P52333).
T1 sequence (P52333 1-1124): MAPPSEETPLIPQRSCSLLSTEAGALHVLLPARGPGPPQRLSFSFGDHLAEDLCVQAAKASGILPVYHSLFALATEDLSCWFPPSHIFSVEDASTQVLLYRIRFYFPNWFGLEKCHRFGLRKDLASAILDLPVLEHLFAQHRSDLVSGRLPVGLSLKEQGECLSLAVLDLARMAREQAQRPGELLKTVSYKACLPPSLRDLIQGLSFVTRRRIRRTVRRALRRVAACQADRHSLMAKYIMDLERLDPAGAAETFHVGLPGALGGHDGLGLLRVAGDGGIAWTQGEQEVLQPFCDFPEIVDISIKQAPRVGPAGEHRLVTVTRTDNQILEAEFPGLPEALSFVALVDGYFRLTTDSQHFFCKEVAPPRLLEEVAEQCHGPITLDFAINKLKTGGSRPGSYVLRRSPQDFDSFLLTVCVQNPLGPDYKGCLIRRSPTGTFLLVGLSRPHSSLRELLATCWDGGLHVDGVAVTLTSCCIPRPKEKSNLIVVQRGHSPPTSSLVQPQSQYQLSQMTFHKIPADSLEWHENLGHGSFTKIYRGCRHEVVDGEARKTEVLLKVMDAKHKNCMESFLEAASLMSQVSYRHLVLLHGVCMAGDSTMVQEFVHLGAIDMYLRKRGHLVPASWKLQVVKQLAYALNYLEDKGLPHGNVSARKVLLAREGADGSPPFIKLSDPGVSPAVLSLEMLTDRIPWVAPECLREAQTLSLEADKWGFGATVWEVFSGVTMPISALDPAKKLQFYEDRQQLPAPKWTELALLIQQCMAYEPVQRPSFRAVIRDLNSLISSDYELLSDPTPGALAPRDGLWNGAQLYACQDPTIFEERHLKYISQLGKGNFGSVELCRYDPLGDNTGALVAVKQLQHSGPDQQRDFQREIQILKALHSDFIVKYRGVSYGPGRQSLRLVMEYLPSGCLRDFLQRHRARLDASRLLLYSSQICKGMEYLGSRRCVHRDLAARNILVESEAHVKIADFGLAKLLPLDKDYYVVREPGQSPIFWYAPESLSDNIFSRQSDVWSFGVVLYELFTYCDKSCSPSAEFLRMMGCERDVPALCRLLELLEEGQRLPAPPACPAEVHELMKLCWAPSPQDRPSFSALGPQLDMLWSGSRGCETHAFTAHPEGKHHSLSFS
Description: Inhibition of a panel of kinases, in vitro HotSpot kinase assay: JAK3. The settings on record: 1 μM ATP, read-out: JAK3 (IC50).

In experiment [2] the target is T2, BTK-WT (Homo sapiens, UniProt Q06187).
T2 construct: purified from insect cells as a full-length construct containing an N-terminal 6X-His tag; His6 (N); made in house; host or cells: insect cells (baculovirus Sf21 in Method B)
Description: Btk in vitro inhibitory activity (one of Method A TR-FRET, Method B electrophoretic mobility shift, Method C radiometric filter binding). The following applies: read-out: BTK-WT (IC50). On the technique in general: In EMSA bound probe runs differently from free probe, usually more slowly.

Experiment [3] deals with LCK (Homo sapiens, UniProt P06239). Description: Inhibition of a panel of kinases, in vitro HotSpot kinase assay: LCK. The following applies: 1 μM ATP, read-out: LCK (IC50).
Chain of LCK (P06239 whole entry): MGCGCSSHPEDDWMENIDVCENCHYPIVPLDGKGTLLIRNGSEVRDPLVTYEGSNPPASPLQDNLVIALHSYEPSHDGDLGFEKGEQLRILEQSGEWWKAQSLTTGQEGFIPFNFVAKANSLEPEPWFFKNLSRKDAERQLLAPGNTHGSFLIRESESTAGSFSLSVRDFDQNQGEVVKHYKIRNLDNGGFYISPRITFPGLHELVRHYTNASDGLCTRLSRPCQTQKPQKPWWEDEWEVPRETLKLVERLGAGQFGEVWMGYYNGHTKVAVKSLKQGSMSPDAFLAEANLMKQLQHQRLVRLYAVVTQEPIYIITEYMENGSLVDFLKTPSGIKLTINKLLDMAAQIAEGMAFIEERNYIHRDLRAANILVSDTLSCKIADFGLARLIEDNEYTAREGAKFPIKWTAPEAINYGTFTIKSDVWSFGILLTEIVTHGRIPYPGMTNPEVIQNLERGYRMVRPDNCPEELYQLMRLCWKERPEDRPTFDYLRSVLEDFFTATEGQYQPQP

T2 sequence (Q06187 whole entry): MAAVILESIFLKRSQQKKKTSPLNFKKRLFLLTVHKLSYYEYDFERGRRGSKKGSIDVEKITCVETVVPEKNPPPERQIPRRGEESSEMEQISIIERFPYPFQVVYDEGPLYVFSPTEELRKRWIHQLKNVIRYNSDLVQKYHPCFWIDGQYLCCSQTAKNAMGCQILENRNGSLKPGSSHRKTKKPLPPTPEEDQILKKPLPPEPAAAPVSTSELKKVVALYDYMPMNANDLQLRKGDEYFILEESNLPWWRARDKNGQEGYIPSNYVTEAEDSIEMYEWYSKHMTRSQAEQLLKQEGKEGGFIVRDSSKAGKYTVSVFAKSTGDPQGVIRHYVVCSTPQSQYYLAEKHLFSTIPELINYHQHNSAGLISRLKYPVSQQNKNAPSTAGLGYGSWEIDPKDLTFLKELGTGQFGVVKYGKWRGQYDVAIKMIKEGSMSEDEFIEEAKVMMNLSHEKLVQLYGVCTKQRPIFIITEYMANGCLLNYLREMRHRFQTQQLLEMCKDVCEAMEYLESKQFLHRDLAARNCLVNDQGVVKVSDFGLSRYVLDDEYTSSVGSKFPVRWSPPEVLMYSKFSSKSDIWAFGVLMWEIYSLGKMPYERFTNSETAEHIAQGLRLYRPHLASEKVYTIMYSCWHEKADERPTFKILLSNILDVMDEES

As for `Cc1cc(Nc2nc(N[C@H]3CCCN(C(=O)N(C)C)C3)cnc2C(N)=O)sn1` [Example C-2, 5-{[(3S)-1-(dimethylcarbamoyl)piperidin-3-yl]amino}-3-[(3-methyl-1,2-thiazol-5-yl)amino]pyrazine-2-carboxamide], the IC50 (usually the point on the concentration scale where inhibition reaches its midpoint) was 100 to 1000 nM in experiment [1] (Table 12, Formula C-I); at most 100 nM in experiment [2] (Table 12, Formula C-I); 100 to 1000 nM in experiment [3] (Table 12, Formula C-I).
With `Cc1cc(Nc2nc(N3CCC[C@@H](NC(=O)c4ccc(N)cc4)C3)cnc2C(N)=O)sn1` [Example A-25, 5-[(3R)-3-(4-aminobenzamido)piperidin-1-yl]-3-[(3-methyl-1,2-thiazol-5-yl)amino]pyrazine-2-carboxamide], the IC50 in experiment [1] (Table 10, Formula A-I) was 100 to 1000 nM; in experiment [2] (Table 10, Formula A-I), at most 100 nM; in experiment [3] (Table 10, Formula A-I), 100 to 1000 nM.
With `Cc1cc(Nc2nc(N[C@@H]3CCCN(C(=O)N(C)C)C3)cnc2C(N)=O)sn1` [Example C-5, 5-([(3R)-1-(dimethylcarbamoyl)piperidin-3-yl]amino)-3-[(3-methyl-1,2-thiazol-5-yl)amino]pyrazine-2-carboxamide hydrochloride], the IC50 was 100 to 1000 nM in experiment [1] (Table 12, Formula C-I); 100 to 1000 nM in experiment [2] (Table 12, Formula C-I); 1000 to 10000 nM in experiment [3] (Table 12, Formula C-I).
Turning to `Cc1cc(Nc2cc(N3CCC[C@@H](NC(=O)c4ccccc4)C3)cnc2C(N)=O)sn1` [Example A-61, 5-[(3R)-3-benzamidopiperidin-1-yl]-3-[(3-methyl-1,2-thiazol-5-yl)amino]pyridine-2-carboxamide], the IC50 lay within 1000 to 10000 nM in experiment [1] (Table 10, Formula A-I); 100 to 1000 nM in experiment [2] (Table 10, Formula A-I); 100 to 1000 nM in experiment [3] (Table 10, Formula A-I).
`Cc1cc(Nc2cc(N3CCC[C@@H](NC(=O)N4Cc5ccccc5C4)C3)cnc2C(N)=O)sn1` [Example A-18, N-[(3R)-1-{6-carbamoyl-5-[(3-methyl-1,2-thiazol-5-yl)amino]pyridin-3-yl}piperidin-3-yl]-2,3-dihydro-1H-isoindole-2-carboxamide]: the IC50 was above 10000 nM in experiment [1] (Table 10, Formula A-I); at most 100 nM in experiment [2] (Table 10, Formula A-I); above 10000 nM in experiment [3] (Table 10, Formula A-I).
Consider `C=CC(=O)N[C@@H]1CCCN(c2cnc(C(N)=O)c(Nc3ccc(C4CCN(C5CCCC5)CC4)cc3)n2)C1` [Example A-84, (R)-5-(3-acrylamidopiperidin-1-yl)-3-(4-(1-cyclopentylpiperidin-4-yl)phenylamino)pyrazine-2-carboxamide], for which the IC50 in experiment [1] (Table 10, Formula A-I) was below 100 nM; in experiment [2] (Table 10, Formula A-I), at most 100 nM; in experiment [3] (Table 10, Formula A-I), below 100 nM.
In the case of `CN(C)c1ccc(C(=O)N[C@@H]2CCCN(c3cnc(C(N)=O)c(Nc4ccc5ncccc5c4)n3)C2)cc1` [Example A-46, 5-[(3R)-3-[4-(dimethylamino)benzamido]piperidin-1-yl]-3-[(quinolin-6-yl)amino]pyrazine-2-carboxamide hydrochloride], the IC50 in experiment [1] (Table 10, Formula A-I) is 1000 to 10000 nM; in experiment [2] (Table 10, Formula A-I), at most 100 nM; in experiment [3] (Table 10, Formula A-I) it was above 10000 nM.
On to `CN(C(=O)N[C@@H]1CCCN(c2cnc(C(N)=O)c(Nc3ccc(C4CCN(C5CCCC5)CC4)cc3)n2)C1)c1ccccc1` [Example A-6, 3-{[4-(1-cyclopentylpiperidin-4-yl)phenyl]amino}-5-[(3R)-3-{[methyl(phenyl)carbamoyl]amino}piperidin-1-yl]pyrazine-2-carboxamide], for which the IC50 in experiment [1] (Table 10, Formula A-I) was 100 to 1000 nM; in experiment [2] (Table 10, Formula A-I) it was at most 100 nM; in experiment [3] (Table 10, Formula A-I), 100 to 1000 nM.
With `Cc1cc(Nc2nc(N3CCC[C@@H](NC(=O)c4cccc(F)c4)C3)cnc2C(N)=O)sn1` [Example A-22, 5-[(3R)-3-(3-fluorobenzamido)piperidin-1-yl]-3-[(3-methyl-1,2-thiazol-5-yl)amino]pyrazine-2-carboxamide], the 50% inhibitory concentration (IC50) is 100 to 1000 nM in experiment [1] (Table 10, Formula A-I); at most 100 nM in experiment [2] (Table 10, Formula A-I); 100 to 1000 nM in experiment [3] (Table 10, Formula A-I).
In the case of `Cc1cc(Nc2nc(N3CCC[C@@H](NC(=O)NC4CCCCC4)C3)cnc2C(N)=O)sn1` [Example A-13, 5-[(3R)-3-[(cyclohexylcarbamoyl)amino]piperidin-1-yl]-3-[(3-methyl-1,2-thiazol-5-yl)amino]pyrazine-2-carboxamide], the IC50 in experiment [1] (Table 10, Formula A-I) is 1000 to 10000 nM; in experiment [2] (Table 10, Formula A-I) it was at most 100 nM; in experiment [3] (Table 10, Formula A-I), 100 to 1000 nM.
Regarding `C=CC(=O)N1CC[C@H](Nc2nnc(C(N)=O)c(Nc3ccc(C(C)C)cc3)n2)C1` [Example C-31, (S)-3-(1-acryloylpyrrolidin-3-ylamino)-5-(4-isopropylphenylamino)-1,2,4-triazine-6-carboxamide], the IC50 is below 100 nM in experiment [1] (Table 12, Formula C-I); at most 100 nM in experiment [2] (Table 12, Formula C-I); 100 to 1000 nM in experiment [3] (Table 12, Formula C-I).
In the case of `Cc1cc(Nc2nc(N[C@@H]3CCCN(C(=O)c4ccccc4)C3)cnc2C(N)=O)sn1` [Example C-3, 5-{[(3R)-1-benzoylpiperidin-3-yl]amino}-3-[(3-methyl-1,2-thiazol-5-yl)amino]pyrazine-2-carboxamide], the IC50 in experiment [1] (Table 12, Formula C-I) is above 10000 nM; in experiment [2] (Table 12, Formula C-I), at most 100 nM; in experiment [3] (Table 12, Formula C-I), above 10000 nM.
In the case of `C=CC(=O)N1CC[C@H](Nc2nnc(C(N)=O)c(Nc3cccc(C(=O)Nc4ccc(C(C)C)c(C)c4)c3)n2)C1` [Example C-29, (S)-3-(1-acryloylpyrrolidin-3-ylamino)-5-(3-(4-isopropyl-3-methylphenyl-carbamoyl)phenyl-amino)-1,2,4-triazine-6-carboxamide], the half-maximal inhibitory concentration (IC50) in experiment [1] (Table 12, Formula C-I) is below 100 nM; in experiment [2] (Table 12, Formula C-I) it was at most 100 nM; in experiment [3] (Table 12, Formula C-I), above 10000 nM.
Consider `Cc1cc(Nc2nc(N3CCC[C@@H](NC(=O)c4ccc(F)cc4F)C3)cnc2C(N)=O)sn1` [Example A-36, 5-[(3R)-3-(2,4-difluorobenzamido)piperidin-1-yl]-3-[(3-methyl-1,2-thiazol-5-yl)amino]pyrazine-2-carboxamide], for which the IC50 in experiment [1] (Table 10, Formula A-I) is above 10000 nM; in experiment [2] (Table 10, Formula A-I) it was at most 100 nM; in experiment [3] (Table 10, Formula A-I), above 10000 nM.
Regarding `CN(C)C(=O)N[C@@H]1CCCN(c2cnc(C(N)=O)c(Nc3ccc4ncccc4c3)n2)C1` [Example A-47, 5-[(3R)-3-[(dimethylcarbamoyl)amino]piperidin-1-yl]-3-[(quinolin-6-yl)amino]pyrazine-2-carboxamide], the IC50 is 1000 to 10000 nM in experiment [1] (Table 10, Formula A-I); at most 100 nM in experiment [2] (Table 10, Formula A-I); above 10000 nM in experiment [3] (Table 10, Formula A-I).
For `Cc1cc(Nc2nc(N[C@@H]3CCN(C(=O)N(C)C)C3)cnc2C(N)=O)sn1` [Example C-12, 5-([(3R)-1-(dimethylcarbamoyl)pyrrolidin-3-yl]amino)-3-[(3-methyl-1,2-thiazol-5-yl)amino]pyrazine-2-carboxamide], the concentration for half-maximal inhibition (IC50) lay within 100 to 1000 nM in experiment [1] (Table 12, Formula C-I); 100 to 1000 nM in experiment [2] (Table 12, Formula C-I); 100 to 1000 nM in experiment [3] (Table 12, Formula C-I).
Take `CN(C)c1ccc(C(=O)N[C@@H]2CCCN(c3cnc(C(N)=O)c(Nc4ccc(C5(C)CCN(C6CC6)CC5)cc4)n3)C2)cc1` [Example A-49, 3-{[4-(1-cyclopropyl-4-methylpiperidin-4-yl)phenyl]amino}-5-[(3R)-3-[4-(dimethylamino)benzamido]piperidin-1-yl]pyrazine-2-carboxamide]: the half-maximal inhibitory concentration (IC50) in experiment [1] (Table 10, Formula A-I) is 100 to 1000 nM; in experiment [2] (Table 10, Formula A-I), at most 100 nM; in experiment [3] (Table 10, Formula A-I), below 100 nM.
For `NC(=O)c1ncc(N2CCC[C@@H](NC(=O)Nc3ccccc3)C2)nc1Nc1ccc(C2CCN(C3CCCC3)CC2)cc1` [Example A-2, 3-{[4-(1-cyclopentylpiperidin-4-yl)phenyl]amino}-5-[(3R)-3-[(phenylcarbamoyl)amino]piperidin-1-yl]pyrazine-2-carboxamide hydrochloride], the IC50 in experiment [1] (Table 10, Formula A-I) is 100 to 1000 nM; in experiment [2] (Table 10, Formula A-I), at most 100 nM; in experiment [3] (Table 10, Formula A-I), below 100 nM.
